Data published in US11371013B2, “Culture medium composition and method of culturing cell or tissue using thereof” (Nissan Chemical Industries, Ltd., priority 2012, dated 2022).

Key:
Format in all cases: cell-based, human
HeLa cells [1] = assay: HeLa cell proliferation test using Trametinib and MK-2206; details: drug from day 1 for 5 days
Procedure: (§1) This aqueous solution was sterilized at 121° C. for 20 min in an autoclave.
(§2) Each plate was cultured by being stood still in a CO2 incubator (37° C., 5% CO2). […] The anticancer drugs used were Trametinib (manufactured by Santa Cruz, MEK inhibitor) and MK-2206 (manufactured by Santa Cruz, Akt inhibitor). To the culture medium on day 6 was added an ATP reagent (150 μL) (CellTiter-Glo (registered trade mark) Luminescent Cell Viability Assay, manufactured by Promega) to give a suspension, which was stood for about 10 min at room temperature, and the luminescence intensity (RLU value) was measured by FlexStation3 (manufactured by Molecular Devices), and the number of viable cells was measured by subtracting the luminescence value of the medium alone.

A549 cells = assay: A549 cell proliferation test using Trametinib and MK-2206; details: drug from day 1 for 5 days
Procedure: This aqueous solution was sterilized at 121° C. for 20 min is in an autoclave.
as §2

HeLa cells [2] = assay: Cell proliferation test using various anticancer drugs; details: DAG 0.030% medium; for cell density: HeLa cells 5 days later
Procedure: This aqueous solution was sterilized at 121° C. for 20 min in an autoclave. […] The anticancer drug used was Adriamycin (manufactured by WAKO), Paclitaxel (manufactured by WAKO) or Mitomycin C (manufactured by WAKO).
Successively, this plate was cultured by being stood still in a CO2 incubator (37° C., 5% CO2) for 7 days. After culturing for 3, 5, 7 days, to the culture medium was added a WST-8 solution (manufactured by DOJINDO Laboratories, 20 μL), and the mixture was incubated at 37° C. for 100 min. The absorbance at 450 nm was measured by an absorbance spectrometer (manufactured by Molecular Devices, SPECTRA MAX 190), and the number of viable cells was measured by subtracting the absorbance of the medium alone. The culture medium containing the cells after 5 days of culture was stirred with a pipette and the obtained stirred solution (20 μL) was mixed with Trypan Blue stain 0.4% (manufactured by Invitrogen, 20 μL) and the cell density was measured under a microscope.

HeLa cells [3] = assay: Comparison with single layer culture method in cell proliferation test using anticancer drug; details: day 4
Procedure: as §1
Each plate was cultured by being stood still in a CO2 incubator (37° C., 5% CO2). […] The anticancer drug used was Adriamycin (manufactured by WAKO), Paclitaxel (manufactured by WAKO) or Mitomycin C (manufactured by WAKO). To the culture medium on day 4 was added an ATP reagent (150 μL) (CellTiter-Glo (registered trade mark) Luminescent Cell Viability Assay, manufactured by Promega) to give a suspension, which was stood for about 10 min at room temperature, and the luminescence intensity (RLU value) was measured by FlexStation3 (manufactured by Molecular Devices), and the number of viable cells was measured by subtracting the luminescence value of the medium alone. For WST-8 measurement, a WST-8 solution (manufactured by DOJINDO Laboratories, 15 μL) was added, the mixture was incubated at 37° C. for 100 min, the absorbance at 450 nm was measured by an absorbance spectrometer (manufactured by Molecular Devices, SPECTRA MAX 190), and the number of viable cells was measured by subtracting the absorbance of the medium alone.

[4] = 0.03 μM, deacylated gellan gum addition group (0.015%)
[5] = 0.03 μM, single layer culture group
[6] = 0.3 μM, deacylated gellan gum addition group (0.015%)
[7] = 0.3 μM, single layer culture group
[8] = 3 μM, deacylated gellan gum addition group (0.015%)
[9] = 3 μM, single layer culture group
[10] = 30 μM, deacylated gellan gum addition group (0.015%)
[11] = 30 μM, single layer culture group
[12] = 0.005 μM, deacylated gellan gum addition group (0.015%)
[13] = 0.005 μM, single layer culture group
[14] = 0.05 μM, deacylated gellan gum addition group (0.015%)
[15] = 0.05 μM, single layer culture group
[16] = 0.5 μM, deacylated gellan gum addition group (0.015%)
[17] = 0.5 μM, single layer culture group
[18] = 0.001 μM, single layer culture group
[19] = 0.003 μM, deacylated gellan gum addition group (0.015%)
[20] = 0.003 μM, single layer culture group
[21] = 0.01 μM, deacylated gellan gum addition group (0.015%)
[22] = 0.01 μM, single layer culture group
[23] = 0.001 μM, deacylated gellan gum addition group (0.015%)
[24] = 0.1 μM, deacylated gellan gum addition group (0.015%)
[25] = 0.1 μM, single layer culture group
[26] = 1 μM, deacylated gellan gum addition group (0.015%)
[27] = 1 μM, single layer culture group

**Q.** For `NC1(c2ccc(-c3nc4ccn5c(=O)[nH]nc5c4cc3-c3ccccc3)cc2)CCC1` [MK-2206], which “% Control of RLU value (ATP)” value (HeLa cells [1]; [4]) is on record?
**A.** 57 % Control

**Q.** What about the “% Control of RLU value (ATP)” value (HeLa cells [1]; [5]) of the same compound?
**A.** 93 % Control

**Q.** And the “% Control of RLU value (ATP)” value (HeLa cells [1]; [6])?
**A.** 21 % Control

**Q.** And the “% Control of RLU value (ATP)” value (HeLa cells [1]; [7])?
**A.** 84 % Control

**Q.** What about the “% Control of RLU value (ATP)” value (HeLa cells [1]; [8]) of the same compound?
**A.** 21 % Control

**Q.** And the “% Control of RLU value (ATP)” value (HeLa cells [1]; [9])?
**A.** 69 % Control

**Q.** And the “% Control of RLU value (ATP)” value (HeLa cells [1]; [10])?
**A.** 0 % Control

**Q.** What about the “% Control of RLU value (ATP)” value (HeLa cells [1]; [11]) of the same compound?
**A.** 0 % Control

**Q.** And the “% Control of RLU value (ATP)” value (A549 cells; [4])?
**A.** 84 % Control

**Q.** And the “% Control of RLU value (ATP)” value (A549 cells; [5])?
**A.** 93 % Control

**Q.** What about the “% Control of RLU value (ATP)” value (A549 cells; [6]) of the same compound?
**A.** 45 % Control

**Q.** What about the “% Control of RLU value (ATP)” value (A549 cells; [7]) of the same compound?
**A.** 79 % Control

**Q.** What about the “% Control of RLU value (ATP)” value (A549 cells; [8]) of the same compound?
**A.** 21 % Control

**Q.** And the “% Control of RLU value (ATP)” value (A549 cells; [9])?
**A.** 53 % Control

**Q.** And the “% Control of RLU value (ATP)” value (A549 cells; [10])?
**A.** 0 % Control

**Q.** What about the “% Control of RLU value (ATP)” value (A549 cells; [11]) of the same compound?
**A.** 0 % Control

**Q.** For `CO[C@@]12[C@H](COC(N)=O)C3=C(C(=O)C(C)=C(N)C3=O)N1C[C@@H]1N[C@@H]12` [Mitomycin C], which cell density (HeLa cells [2]; 0.01 μM) is on record?
**A.** 1.0 10^4 cells/mL

**Q.** And the “cell number (absorbance at 450 nm, WST-8)” value (from here on “cell number”) (HeLa cells [2]; 0.01 μM, culture day 3)?
**A.** 0.089

**Q.** What about the “cell number” value (HeLa cells [2]; 0.01 μM, culture day 5) of the same compound?
**A.** 0.016

**Q.** And the “cell number” value (HeLa cells [2]; 0.01 μM, culture day 7)?
**A.** <0

**Q.** What about the cell density (HeLa cells [2]; 0.1 μM) of the same compound?
**A.** 0.4 10^4 cells/mL

**Q.** What about the “cell number” value (HeLa cells [2]; 0.1 μM, culture day 3) of the same compound?
**A.** 0.032

**Q.** What about the “cell number” value (HeLa cells [2]; 0.1 μM, culture day 5) of the same compound?
**A.** <0

**Q.** What about the “cell number” value (HeLa cells [2]; 0.1 μM, culture day 7) of the same compound?
**A.** <0

**Q.** What about the cell density (HeLa cells [2]; 1 μM) of the same compound?
**A.** 0.1 10^4 cells/mL

**Q.** What about the “cell number” value (HeLa cells [2]; 1 μM, culture day 3) of the same compound?
**A.** <0

**Q.** And the “cell number” value (HeLa cells [2]; 1 μM, culture day 5)?
**A.** <0

**Q.** And the “cell number” value (HeLa cells [2]; 1 μM, culture day 7)?
**A.** <0

**Q.** And the “% Control of RLU value (ATP)” value (HeLa cells [3]; [12])?
**A.** 83 % Control

**Q.** And the “% Control of absorbance at 450 nm (WST-8)” value (from here on “% Control of absorbance”) (HeLa cells [3]; [12])?
**A.** 94 % Control

**Q.** What about the “% Control of RLU value (ATP)” value (HeLa cells [3]; [13]) of the same compound?
**A.** 99 % Control

**Q.** What about the “% Control of absorbance” value (HeLa cells [3]; [13]) of the same compound?
**A.** 101 % Control

**Q.** And the “% Control of RLU value (ATP)” value (HeLa cells [3]; [14])?
**A.** 48 % Control

**Q.** And the “% Control of absorbance” value (HeLa cells [3]; [14])?
**A.** 37 % Control

**Q.** What about the “% Control of RLU value (ATP)” value (HeLa cells [3]; [15]) of the same compound?
**A.** 89 % Control

**Q.** What about the “% Control of absorbance” value (HeLa cells [3]; [15]) of the same compound?
**A.** 83 % Control

**Q.** And the “% Control of RLU value (ATP)” value (HeLa cells [3]; [16])?
**A.** 29 % Control

**Q.** And the “% Control of absorbance” value (HeLa cells [3]; [16])?
**A.** 12 % Control

**Q.** And the “% Control of RLU value (ATP)” value (HeLa cells [3]; [17])?
**A.** 86 % Control

**Q.** And the “% Control of absorbance” value (HeLa cells [3]; [17])?
**A.** 71 % Control

**Q.** Which cell density (HeLa cells [2]; 0.1 μM) does the source give for `CC(=O)O[C@H]1C(=O)[C@@]2(C)[C@H]([C@H](OC(=O)c3ccccc3)[C@]3(O)C[C@H](OC(=O)[C@H](O)[C@@H](NC(=O)c4ccccc4)c4ccccc4)C(C)=C1C3(C)C)[C@]1(OC(C)=O)CO[C@@H]1C[C@@H]2O` [Paclitaxel] here?
**A.** 0.9 10^4 cells/mL

**Q.** And the cell density (HeLa cells [2]; 1 μM)?
**A.** 0.2 10^4 cells/mL

**Q.** What about the “% Control of RLU value (ATP)” value (HeLa cells [1]; [18]) of the same compound?
**A.** 89 % Control

**Q.** And the “% Control of RLU value (ATP)” value (HeLa cells [1]; [19])?
**A.** 46 % Control

**Q.** What about the “% Control of RLU value (ATP)” value (HeLa cells [1]; [20]) of the same compound?
**A.** 15 % Control

**Q.** And the “% Control of RLU value (ATP)” value (HeLa cells [1]; [21])?
**A.** 5 % Control

**Q.** What about the “% Control of RLU value (ATP)” value (HeLa cells [1]; [22]) of the same compound?
**A.** 2 % Control

**Q.** And the “% Control of RLU value (ATP)” value (A549 cells; [23])?
**A.** 93 % Control

**Q.** And the “% Control of RLU value (ATP)” value (A549 cells; [18])?
**A.** 81 % Control

**Q.** What about the “% Control of RLU value (ATP)” value (A549 cells; [19]) of the same compound?
**A.** 52 % Control

**Q.** And the “% Control of RLU value (ATP)” value (A549 cells; [20])?
**A.** 31 % Control

**Q.** And the “% Control of RLU value (ATP)” value (A549 cells; [21])?
**A.** 32 % Control

**Q.** And the “% Control of RLU value (ATP)” value (A549 cells; [22])?
**A.** 16 % Control

**Q.** What does the source list for `CC(=O)Nc1cccc(-n2c(=O)n(C3CC3)c(=O)c3c(Nc4ccc(I)cc4F)n(C)c(=O)c(C)c32)c1` [Trametinib]?
**A.** % Control of RLU value (ATP) (HeLa cells [1]; [23]): 73 % Control; % Control of RLU value (ATP) (HeLa cells [1]; [18]): 102 % Control; % Control of RLU value (ATP) (HeLa cells [1]; [21]): 12 % Control; % Control of RLU value (ATP) (HeLa cells [1]; [22]): 93 % Control; % Control of RLU value (ATP) (HeLa cells [1]; [24]): 1 % Control; % Control of RLU value (ATP) (HeLa cells [1]; [25]): 20 % Control; % Control of RLU value (ATP) (HeLa cells [1]; [26]): 1 % Control; % Control of RLU value (ATP) (HeLa cells [1]; [27]): 3 % Control; % Control of RLU value (ATP) (A549 cells; [23]): 72 % Control; % Control of RLU value (ATP) (A549 cells; [18]): 71 % Control; % Control of RLU value (ATP) (A549 cells; [21]): 35 % Control; % Control of RLU value (ATP) (A549 cells; [22]): 37 % Control; % Control of RLU value (ATP) (A549 cells; [24]): 2 % Control; % Control of RLU value (ATP) (A549 cells; [25]): 5 % Control; % Control of RLU value (ATP) (A549 cells; [26]): 0 % Control; % Control of RLU value (ATP) (A549 cells; [27]): 1 % Control
